Data taken from patent publication US20050009924A1 (priority 2003, published 2005).

Experiments:
human hepatoma G2 cells = test: Cytotoxicity assay (XTT colorimetric), Hep G2; assay type: cell-based; settings: 48 h of drug exposure
rat glioma C6 cells = test: Cytotoxicity assay (XTT colorimetric), C6 cells; assay type: cell-based; settings: 48 h of drug exposure
[1] = system: hepatitis B virus transfected hepatoma cell lines, HepG 2.2.15 cells; test: Cytotoxicity assay, 2.2.15 cells; assay type: cell-based, human; settings: 48 h of drug exposure
[2] = system: transcriptional activity of hTERT; test: SEAP reporter assay of hTERT expression, PhTERT-SEAP (hTERT-BJ1); assay type: cell-based, human; settings: PhTERT-SEAP (hTERT-BJ1)
Experimental: (§1) Secreted alkaine phosphatase was used as the reporter system to monitor the transcriptional activity of hTERT. Here, about […] each were grown in 96-well plates and incubated at 37° C. for 24 h and changed with fresh media. Varying amounts of drugs were added and cells were incubated for another 24 h. Culture media were collected and heated at 65° C. for 10 min to inactivate heat-labile phosphatases. An equal amount of SEAP buffer (2 M diethanolamine, 1 mM MgCl2, and 20 mM […]) was added to the media and p-nitrophenyl phosphate was added to a final concentration of 12 mM. Absorptions at 405 nm were taken, and the rate of absorption increase is determined.
(§2) Culture media were changed every 3 days. […] The stable clones were selected using G418.

[3] = system: transcriptional activity of hTERT; test: SEAP reporter assay of hTERT expression, PhTERT-SEAP (H1299); assay type: cell-based, human; settings: PhTERT-SEAP(hTERT-H1299)
Experimental: as §1, §2

[4] = system: non-small-cell lung cancer cells H1299; test: MTT relative viability, PhTERT-SEAP (H1299) cells; settings: PhTERT-SEAP(hTERT-H1299)
hTERT-BJ1 cells = test: MTT relative viability, PhTERT-SEAP (hTERT-BJ1) cells; settings: PhTERT-SEAP (hTERT-BJ1)

Structure (SMILES): O=C(Nc1ccc(NC(=O)c2ccc(Cl)cc2Cl)c2c1C(=O)c1ccccc1C2=O)c1ccc(Cl)cc1Cl [VI8, 1,4-Bis(2,4-dichlorobenzoylamido)-9,10-anthracenedione]
- IC50 (human hepatoma G2 cells): > 20 µM
- IC50 (rat glioma C6 cells): > 20 µM
- IC50 [1]: > 20 µM
- Relative SEAP activity (%) ([2]; 1.7 μM): 33 ± 11.2%
- SEAP/vibility ([2]; 1.7 μM): 0.32
- Relative SEAP activity (%) ([2]; 17 μM): 25 ± 17.2%
- SEAP/vibility ([2]; 17 μM): 0.26
- Relative SEAP activity (%) ([2]; 171 μM): 39 ± 12.8%
- SEAP/vibility ([2]; 171 μM): 0.52
- Relative SEAP activity (%) ([3]; 1.7 μM): 85 ± 7.9%
- SEAP/vibility ([3]; 1.7 μM): 0.80
- Relative SEAP activity (%) ([3]; 17 μM): 84 ± 7.1%
- SEAP/vibility ([3]; 17 μM): 0.89
- Relative SEAP activity (%) ([3]; 171 μM): 87 ± 2.6%
- SEAP/vibility ([3]; 171 μM): 1.06
- Relative MTT viability (%) ([4]; 1.7 μM): 106 ± 3.9%
- Relative MTT viability (%) ([4]; 17 μM): 95 ± 1.3%
- Relative MTT viability (%) ([4]; 171 μM): 83 ± 1.2%
- Relative MTT viability (%) (hTERT-BJ1 cells; 1.7 μM): 102 ± 3.4%
- Relative MTT viability (%) (hTERT-BJ1 cells; 17 μM): 98 ± 7.2%
- Relative MTT viability (%) (hTERT-BJ1 cells; 171 μM): 76 ± 4.8%

Structure (SMILES): O=C(Nc1ccc(NC(=O)c2ccccc2F)c2c1C(=O)c1ccccc1C2=O)c1ccccc1F [VI10, 1,4-Bis(2-fluorobenzoylamido)-9,10-anthracenedione]
- IC50 (human hepatoma G2 cells): > 20 µM
- IC50 (rat glioma C6 cells): > 20 µM
- IC50 [1]: > 20 µM
- Relative SEAP activity (%) ([2]; 2.0 μM): 95 ± 8.9%
- SEAP/vibility ([2]; 2.0 μM): 0.90
- Relative SEAP activity (%) ([2]; 20 μM): 96 ± 9.8%
- SEAP/vibility ([2]; 20 μM): 0.96
- Relative SEAP activity (%) ([2]; 207 μM): 79 ± 7.4%
- SEAP/vibility ([2]; 207 μM): 0.92
- Relative SEAP activity (%) ([3]; 2.0 μM): 105 ± 7.8%
- SEAP/vibility ([3]; 2.0 μM): 0.91
- Relative SEAP activity (%) ([3]; 20 μM): 107 ± 11.9%
- SEAP/vibility ([3]; 20 μM): 1.03
- Relative SEAP activity (%) ([3]; 207 μM): 103 ± 14.4%
- SEAP/vibility ([3]; 207 μM): 1.34
- Relative MTT viability (%) ([4]; 2.0 μM): 116 ± 2.4%
- Relative MTT viability (%) ([4]; 20 μM): 104 ± 6.1%
- Relative MTT viability (%) ([4]; 207 μM): 77 ± 2.6%
- Relative MTT viability (%) (hTERT-BJ1 cells; 2.0 μM): 106 ± 6.5%
- Relative MTT viability (%) (hTERT-BJ1 cells; 20 μM): 105 ± 8.5%
- Relative MTT viability (%) (hTERT-BJ1 cells; 207 μM): 86 ± 7.3%

Structure (SMILES): O=C(Nc1ccc(NC(=O)c2ccccc2[N+](=O)[O-])c2c1C(=O)c1ccccc1C2=O)c1ccccc1[N+](=O)[O-] [VI11, 1,4-Bis(2-nitrobenzoylamido)-9,10-anthracenedione]
- IC50 (human hepatoma G2 cells): > 20 µM
- IC50 (rat glioma C6 cells): > 20 µM
- IC50 [1]: > 20 µM
- Relative SEAP activity (%) ([2]; 1.8 μM): 102 ± 33.4%
- SEAP/vibility ([2]; 1.8 μM): 0.92
- Relative SEAP activity (%) ([2]; 18 μM): 122 ± 19.5%
- SEAP/vibility ([2]; 18 μM): 1.14
- Relative SEAP activity (%) ([2]; 186 μM): 114 ± 28.1%
- SEAP/vibility ([2]; 186 μM): 1.15
- Relative SEAP activity (%) ([3]; 1.8 μM): 105 ± 4.3%
- SEAP/vibility ([3]; 1.8 μM): 1.00
- Relative SEAP activity (%) ([3]; 18 μM): 107 ± 7.9%
- SEAP/vibility ([3]; 18 μM): 1.06
- Relative SEAP activity (%) ([3]; 186 μM): 94 ± 8.0%
- SEAP/vibility ([3]; 186 μM): 1.10
- Relative MTT viability (%) ([4]; 1.8 μM): 104 ± 6.3%
- Relative MTT viability (%) ([4]; 18 μM): 101 ± 4.1%
- Relative MTT viability (%) ([4]; 186 μM): 86 ± 5.3%
- Relative MTT viability (%) (hTERT-BJ1 cells; 1.8 μM): 110 ± 4.1%
- Relative MTT viability (%) (hTERT-BJ1 cells; 18 μM): 107 ± 6.3%
- Relative MTT viability (%) (hTERT-BJ1 cells; 186 μM): 99 ± 3.2%

Structure (SMILES): O=C(Nc1ccc(NC(=O)c2cccc(F)c2)c2c1C(=O)c1ccccc1C2=O)c1cccc(F)c1 [VI12, 1,4-Bis(3-fluorobenzoylamido)-9,10-anthracenedione]
- IC50 (human hepatoma G2 cells): > 20 µM
- IC50 (rat glioma C6 cells): > 20 µM
- IC50 [1]: > 20 µM
- Relative SEAP activity (%) ([2]; 2.0 μM): 107 ± 11.9%
- SEAP/vibility ([2]; 2.0 μM): 1.05
- Relative SEAP activity (%) ([2]; 20 μM): 108 ± 15.5%
- SEAP/vibility ([2]; 20 μM): 1.11
- Relative SEAP activity (%) ([2]; 207 μM): 95 ± 13.9%
- SEAP/vibility ([2]; 207 μM): 1.12
- Relative SEAP activity (%) ([3]; 2.0 μM): 102 ± 2.9%
- SEAP/vibility ([3]; 2.0 μM): 0.98
- Relative SEAP activity (%) ([3]; 20 μM): 110 ± 6.5%
- SEAP/vibility ([3]; 20 μM): 1.14
- Relative SEAP activity (%) ([3]; 207 μM): 106 ± 9.4%
- SEAP/vibility ([3]; 207 μM): 1.59
- Relative MTT viability (%) ([4]; 2.0 μM): 105 ± 6.8%
- Relative MTT viability (%) ([4]; 20 μM): 96 ± 7.4%
- Relative MTT viability (%) ([4]; 207 μM): 66 ± 5.5%
- Relative MTT viability (%) (hTERT-BJ1 cells; 2.0 μM): 102 ± 1.5%
- Relative MTT viability (%) (hTERT-BJ1 cells; 20 μM): 97 ± 2.9%
- Relative MTT viability (%) (hTERT-BJ1 cells; 207 μM): 85 ± 2.6%

Structure (SMILES): O=C(Nc1ccc(NC(=O)c2c(Cl)cc(Cl)cc2Cl)c2c1C(=O)c1ccccc1C2=O)c1c(Cl)cc(Cl)cc1Cl [VI13, 1,4-Bis(2,4,6-trichlorobenzoylamido)-9,10-anthracenedione]
- IC50 (human hepatoma G2 cells): 2.77 µM
- IC50 (rat glioma C6 cells): > 20 µM
- IC50 [1]: 3.63 µM
- Relative SEAP activity (%) ([2]; 1.5 μM): 31 ± 23.0%
- SEAP/vibility ([2]; 1.5 μM): 0.32
- Relative SEAP activity (%) ([2]; 15 μM): 12 ± 12.5%
- SEAP/vibility ([2]; 15 μM): 0.19
- Relative SEAP activity (%) ([2]; 153 μM): 4 ± 15%
- SEAP/vibility ([2]; 153 μM): 0.09
- Relative SEAP activity (%) ([3]; 1.5 μM): 98 ± 4.5%
- SEAP/vibility ([3]; 1.5 μM): 0.87
- Relative SEAP activity (%) ([3]; 15 μM): 66 ± 2.4%
- SEAP/vibility ([3]; 15 μM): 0.61
- Relative SEAP activity (%) ([3]; 153 μM): 41 ± 3.9%
- SEAP/vibility ([3]; 153 μM): 0.03
- Relative MTT viability (%) ([4]; 1.5 μM): 113 ± 4.8%
- Relative MTT viability (%) ([4]; 15 μM): 107 ± 5.4%
- Relative MTT viability (%) ([4]; 153 μM): 20 ± 3.3%
- Relative MTT viability (%) (hTERT-BJ1 cells; 1.5 μM): 98 ± 8.5%
- Relative MTT viability (%) (hTERT-BJ1 cells; 15 μM): 63 ± 7.0%
- Relative MTT viability (%) (hTERT-BJ1 cells; 153 μM): 40 ± 22.2%

Structure (SMILES): O=C(Nc1ccc(NC(=O)c2c(F)ccc(F)c2F)c2c1C(=O)c1ccccc1C2=O)c1c(F)ccc(F)c1F [VI14, 1,4-Bis(2,3,6-trifluorobenzoylamido)-9,10-anthracenedione]
- IC50 (human hepatoma G2 cells): > 20 µM
- IC50 (rat glioma C6 cells): > 20 µM
- IC50 [1]: > 20 µM
- Relative SEAP activity (%) ([2]; 1.8 μM): 35 ± 14.1%
- SEAP/vibility ([2]; 1.8 μM): 0.35
- Relative SEAP activity (%) ([2]; 18 μM): 22 ± 24.4%
- SEAP/vibility ([2]; 18 μM): 0.25
- Relative SEAP activity (%) ([2]; 180 μM): 31 ± 7.9%
- SEAP/vibility ([2]; 180 μM): 0.44
- Relative SEAP activity (%) ([3]; 1.8 μM): 91 ± 5.2%
- SEAP/vibility ([3]; 1.8 μM): 0.82
- Relative SEAP activity (%) ([3]; 18 μM): 97 ± 4.1%
- SEAP/vibility ([3]; 18 μM): 1.09
- Relative SEAP activity (%) ([3]; 180 μM): 91 ± 3.3%
- SEAP/vibility ([3]; 180 μM): 1.64
- Relative MTT viability (%) ([4]; 1.8 μM): 111 ± 2.9%
- Relative MTT viability (%) ([4]; 18 μM): 89 ± 3.7%
- Relative MTT viability (%) ([4]; 180 μM): 55 ± 3.3%
- Relative MTT viability (%) (hTERT-BJ1 cells; 1.8 μM): 102 ± 3.3%
- Relative MTT viability (%) (hTERT-BJ1 cells; 18 μM): 90 ± 6.0%
- Relative MTT viability (%) (hTERT-BJ1 cells; 180 μM): 70 ± 6.8%

Structure (SMILES): O=C(Nc1ccc(NC(=O)c2cc(F)c(F)cc2F)c2c1C(=O)c1ccccc1C2=O)c1cc(F)c(F)cc1F [VI15, 1,4-Bis(2,4,5-trifluorobenzoylamido)-9,10-anthracenedione]
- IC50 (human hepatoma G2 cells): > 20 µM
- IC50 (rat glioma C6 cells): > 20 µM
- IC50 [1]: 3.35 µM
- Relative SEAP activity (%) ([2]; 1.6 μM): 117 ± 14.2%
- SEAP/vibility ([2]; 1.6 μM): 1.12
- Relative SEAP activity (%) ([2]; 16 μM): 114 ± 20.4%
- SEAP/vibility ([2]; 16 μM): 1.29
- Relative SEAP activity (%) ([2]; 161 μM): 115 ± 30.8%
- SEAP/vibility ([2]; 161 μM): 1.44
- Relative SEAP activity (%) ([3]; 1.6 μM): 109 ± 10.8%
- SEAP/vibility ([3]; 1.6 μM): 1.20
- Relative SEAP activity (%) ([3]; 16 μM): 118 ± 10.3%
- SEAP/vibility ([3]; 16 μM): 1.45
- Relative SEAP activity (%) ([3]; 161 μM): 104 ± 8.2%
- SEAP/vibility ([3]; 161 μM): 1.73
- Relative MTT viability (%) ([4]; 1.6 μM): 90 ± 6.6%
- Relative MTT viability (%) ([4]; 16 μM): 81 ± 1.9%
- Relative MTT viability (%) ([4]; 161 μM): 60 ± 5.0%
- Relative MTT viability (%) (hTERT-BJ1 cells; 1.6 μM): 104 ± 4.5%
- Relative MTT viability (%) (hTERT-BJ1 cells; 16 μM): 89 ± 5.0%
- Relative MTT viability (%) (hTERT-BJ1 cells; 161 μM): 80 ± 3.8%
